Results on 14 molecules are retold here after US20240043400A1, “Octahydroisoquinolinyl Derivatives” (UCB Biopharma SRL, priority 2020, published 2024).

Some results are limits rather than exact numbers.

Series [1] concerns the target T1, CYP3A4 (Homo sapiens, UniProt P08684).
T1 construct: cryopreserved human microsomes (pooled donors); from tissue
Put plainly: In vitro assessment of CYP3A4 inhibition potential using cryopreserved human microsomes. The conditions noted are these: 20 μM compound, human microsomes 0.25 mg/ml, Table C; for inhibition at 15 min, 20 μM: human, cryopreserved human microsomes (pooled donors), probe midazolam 2.5 μM (1-hydroxymidazolam formation); for % CYP3A4 inhibition: midazolam 2.5 μM. Type of series: in vitro ADME. The method, then: The objective of the human microsome assay is to characterize the inhibition potential of Compound of formula (I) by measuring the CYP3A4 activities after its co-incubation with midazolam, a specific CYP3A4 substrate.
To this aim, cryopreserved human microsomes (pooled donors) are divided on a 48 well collagen coated plate so that the final concentration is 0.25 mg/ml. The UCB compound is then added in the wells at 20 μM concentration in duplicate. After 30 min incubation, midazolam is added at 2.5 μM concentration. After 15 min, an aliquot is removed and placed into an equal volume of methanol containing internal standard. The samples are centrifuged at 2500 rpm at 4° C. for 20 min. An aliquot of supernatant is diluted with deionised water and levels of 1-hydroxymidazolam is quantified using generic LC MS/MS methods.
The concentrations are compared to those obtained after midazolam incubation at the same concentration but without UCB compound pre-incubation. The results are expressed as % of inhibition.

Series [2] concerns the target T2, human GABAA receptor α1β2 and γ2 subunits (Homo sapiens, UniProt P14867+P18507+P47870).
T2 construct: expressed in transfected cells
Briefly: Automated patch clamp studies on the GABAA receptor cells. The conditions noted are these: 15 μM GABA, Table B; for inhibition at 10 µM: CHO-K1, 10 μM compound; for % GABAA inhibition: 10 μM compound, CHO-K1 cells. Format: cell-based. The method, then:
CHO-K1 cells stably expressing human GABAA receptor α1β2 and γ2 subunits were used. The cells were harvested using trypsin and maintained in serum-free medium at room temperature. The cells were washed and re-suspended in extracellular solution before testing.
Experiments on human GABAA (α1β2γ2) channels were conducted using an automated patch clamp assay (lonFlux™ HT). The external solution for recording GABAA currents was composed of sodium chloride 137 mM, potassium chloride 4 mM, calcium chloride 1.8 mM, magnesium chloride 1 mM, HEPES 10 mM, and glucose 10 mM. Both external and internal solutions were titrated with NaOH or KOH to obtain a pH of 7.35 and 7.3, respectively. The internal pipette solution contained potassium fluoride 70 mM, potassium chloride 60 mM, sodium chloride 70 mM, HEPES 5 mM, EGTA 5 mM, and Magnesium ATP 4 mM. The final concentration of vehicle used to dilute compounds was 0.33% DMSO in each well. Bicuculline (0.032 to 100 μM) was used as positive control inhibitor. GABA (15 μM) was used as agonist. All recordings were obtained from a holding potential of −60 mV.
The compound addition sequence was the following: one addition of the EC80 concentration of GABA was added to establish baseline response. Each concentration of compound was applied for 30 seconds followed by the addition of 15 μM GABA in the presence of the compound for 2 seconds. The process was repeated with the next ascending concentration of compound. Peak inward currents in response to the GABA additions in the presence of a single concentration of compound were measured. All compound data have been normalized to the baseline peak current induced by addition of 15 μM GABA for 2 seconds.

For series [3], the target named is T3, dopamine D1 receptor (Homo sapiens, UniProt P21728).
T3 construct: host or cells: LMtk (Ltk-) mouse fibroblast cells, kept under Geneticin
Briefly: cAMP HTRF potentiation assay (in the presence of dopamine). Type of series: cell-based. The following applies: potentiation of cAMP with [EC20] of dopamine (1.1 nM); LMtk (Ltk−) mouse fibroblast cells expressing the dopamine D1 receptor. As for the experimental part: The potentiation assay measures the ability of compounds to increase the levels of cAMP produced by a low-threshold concentration of dopamine. The concentration of dopamine used ([EC20]) is designed to produce 20% stimulation compared to the maximal response (100%) seen with increasing the concentration of dopamine. To measure this potentiation we incubate increasing concentrations of the compound with the [EC20] of dopamine and measure the potentiation as increases in cAMP production. The pEC50 of a compound is the −log 10 of the concentration of the compound which produces 50% of the potentiation of the cAMP levels and the Erel is the relative efficacy, defined as the maximal % potentiation produced by the compound compared to the maximal response produced by increasing concentrations of dopamine (Erel of 1=dopamine maximum response).
Cells were cultured at 37° C. in a humidified atmosphere of 5% CO2. Cells were grown in DMEM-F12+GlutaMAX™-1 medium (GIBCO®, Invitrogen, Merelbeke, Belgium) containing 10% fetal bovine serum (BioWhittaker®, Lonza, Verviers, Belgium), 400 μg/mL Geneticin (GIBCO®), 100 IU/mL Penicillin and 100 IU/mL Streptomycin (Pen-Strep solution, BioWhittaker®).
The measurement of changes in intracellular cyclic adenosinemonophopshpate (cAMP) was determined using the HTRF cAMP dynamic assay kit from CisBio (Codolet, France). Using homogenous time-resolved fluoresence technology, the assay is based on competition between native cAMP produced by cells and cAMP labelled with the dye d2. The tracer binding is determined by an anti-cAMP antibody labeled with cryptate. The effects of the compound alone (agonism) was determined by performing the assay in the absence of dopamine, whilst the effect of the compound as a positive allosteric modulator (PAM) was determined in the presence of an EC20 concentration of dopamine. Cells (20,000 per well) are incubated in 384 plates for 1 h at rt in a final volume of 20 μLHBSS (Lonza, with calcium, magnesium and HEPES buffer 20 mM, pH 7.4) containing: isobutyl methylxanthine (Sigma, 0.1 mM final), varying concentrations of test compound (typically 10^−9.5 M to 10^−4.5 M) in the presence and absence of dopamine (1.1 nM final). The reaction is then terminated and the cells lysed by adding the d2 detection reagent in lysis buffer (10 μL) and the cryptate reagent in lysis buffer (10 μL) according to manufacturer's instructions. This is then incubated for a further 60 min at rt and changes in HTRF fluorescent emission ratio determined according to manufacturer's instructions using an Envision plate reader (Perkin Elmer, Zaventem, Belgium) with laser excitation. All incubations were performed in duplicate and results were compared to a concentration-effect curve to dopamine. (10^−11 M to 10^−6 M).
Data was analyzed using Excel and PRISM (GraphPad Software) to obtain pEC50 and Erel using the 4-parameter logistic equation (DeLean et al, 1978) where Erel is the fitted maximal response of the test compound minus basal expressed as a percentage relative to that obtained with dopamine which was defined as 100%.

T2 sequence (P14867 28-456): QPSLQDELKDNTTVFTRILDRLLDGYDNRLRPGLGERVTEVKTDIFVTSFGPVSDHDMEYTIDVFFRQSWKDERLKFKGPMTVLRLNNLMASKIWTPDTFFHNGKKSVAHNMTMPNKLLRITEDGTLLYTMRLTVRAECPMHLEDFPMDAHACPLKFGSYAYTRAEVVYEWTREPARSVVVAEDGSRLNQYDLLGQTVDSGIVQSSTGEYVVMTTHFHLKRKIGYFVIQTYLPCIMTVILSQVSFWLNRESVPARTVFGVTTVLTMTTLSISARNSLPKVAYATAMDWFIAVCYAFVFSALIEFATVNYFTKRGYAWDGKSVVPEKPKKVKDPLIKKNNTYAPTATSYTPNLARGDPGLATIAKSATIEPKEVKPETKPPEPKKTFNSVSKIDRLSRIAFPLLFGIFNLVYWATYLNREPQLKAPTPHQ
T2 sequence (P47870 25-512 limits assumed): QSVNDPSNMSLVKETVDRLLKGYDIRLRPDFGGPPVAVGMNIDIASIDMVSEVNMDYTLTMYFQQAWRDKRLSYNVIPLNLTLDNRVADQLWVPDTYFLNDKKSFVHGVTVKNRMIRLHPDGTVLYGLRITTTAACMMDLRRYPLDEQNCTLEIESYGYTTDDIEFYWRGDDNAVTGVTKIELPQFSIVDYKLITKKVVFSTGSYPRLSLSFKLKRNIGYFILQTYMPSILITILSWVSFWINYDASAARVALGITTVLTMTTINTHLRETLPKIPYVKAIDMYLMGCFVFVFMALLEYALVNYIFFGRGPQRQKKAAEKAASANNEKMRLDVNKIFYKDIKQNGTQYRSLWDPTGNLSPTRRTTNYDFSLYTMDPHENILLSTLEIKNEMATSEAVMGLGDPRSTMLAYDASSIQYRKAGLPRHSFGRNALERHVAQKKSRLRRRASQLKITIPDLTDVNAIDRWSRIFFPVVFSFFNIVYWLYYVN
T2 sequence (P18507 40-475): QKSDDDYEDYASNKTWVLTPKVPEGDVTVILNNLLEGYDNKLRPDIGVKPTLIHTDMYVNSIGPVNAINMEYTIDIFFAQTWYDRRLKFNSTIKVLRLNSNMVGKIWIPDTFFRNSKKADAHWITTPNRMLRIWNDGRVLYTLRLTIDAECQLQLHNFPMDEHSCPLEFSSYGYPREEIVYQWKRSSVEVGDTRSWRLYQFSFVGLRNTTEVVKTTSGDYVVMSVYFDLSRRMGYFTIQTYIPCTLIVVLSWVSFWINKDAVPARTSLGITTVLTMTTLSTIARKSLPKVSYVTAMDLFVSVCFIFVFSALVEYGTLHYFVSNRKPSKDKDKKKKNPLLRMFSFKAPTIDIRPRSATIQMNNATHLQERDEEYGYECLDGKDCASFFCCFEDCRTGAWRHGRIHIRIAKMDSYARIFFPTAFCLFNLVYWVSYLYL
T1 sequence (P08684 whole entry): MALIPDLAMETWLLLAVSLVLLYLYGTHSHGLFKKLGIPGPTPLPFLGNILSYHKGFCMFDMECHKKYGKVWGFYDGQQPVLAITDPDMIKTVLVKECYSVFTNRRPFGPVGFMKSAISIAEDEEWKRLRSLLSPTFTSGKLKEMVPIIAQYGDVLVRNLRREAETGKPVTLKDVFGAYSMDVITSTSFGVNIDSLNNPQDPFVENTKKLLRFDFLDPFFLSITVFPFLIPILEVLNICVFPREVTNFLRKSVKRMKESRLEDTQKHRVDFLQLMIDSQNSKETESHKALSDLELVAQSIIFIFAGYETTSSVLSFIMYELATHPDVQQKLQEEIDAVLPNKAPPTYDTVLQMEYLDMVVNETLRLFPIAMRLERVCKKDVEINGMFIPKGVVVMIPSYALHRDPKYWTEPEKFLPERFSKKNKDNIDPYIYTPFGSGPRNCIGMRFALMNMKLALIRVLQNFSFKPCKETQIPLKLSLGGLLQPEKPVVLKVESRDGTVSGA
T3 sequence (P21728 whole entry): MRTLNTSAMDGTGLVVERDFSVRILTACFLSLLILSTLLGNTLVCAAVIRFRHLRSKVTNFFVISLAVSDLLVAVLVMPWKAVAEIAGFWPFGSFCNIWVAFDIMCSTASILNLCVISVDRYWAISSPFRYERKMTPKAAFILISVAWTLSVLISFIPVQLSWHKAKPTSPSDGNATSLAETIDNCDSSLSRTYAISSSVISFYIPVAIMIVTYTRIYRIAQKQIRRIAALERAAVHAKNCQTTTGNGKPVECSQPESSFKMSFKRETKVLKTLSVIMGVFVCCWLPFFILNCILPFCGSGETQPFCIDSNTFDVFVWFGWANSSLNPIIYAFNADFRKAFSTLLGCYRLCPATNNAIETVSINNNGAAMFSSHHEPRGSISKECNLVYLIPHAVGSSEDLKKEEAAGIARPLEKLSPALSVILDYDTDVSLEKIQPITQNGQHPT

In series [1], `COc1ccc(C#N)c(CC(=O)N2CC[C@@H]3[C@H](CCC[C@H]3C(O)C(F)F)[C@@H]2C)c1Cl` (single isomer, unassigned) [Example 6-A] yielded an inhibition at 15 min, 20 μM of 20 to 40%. Further, the inhibition at 10 µM in series [2] amounted to 8.6%. In addition, the EC50 in series [3] was 50.1 nM.
For `COc1ccc(C#N)c(CC(=O)N2CC[C@@H]3[C@H](CCC[C@H]3C(O)C(F)F)[C@@H]2C)c1Cl` (single isomer, unassigned) [Example 6-B], the “% CYP3A4 inhibition” value in series [1] is “++++ (A percentage of inhibition greater than about 20% and lower than or equal to about 40% is indicated by ++++.)”. For the same molecule, the “% GABAA inhibition” value in series [2] turned out to be 10.9%. For the same molecule, in series [3], the EC50 is 200 nM.
Turning to `COc1ccc(C#N)c(CC(=O)N2CC[C@@H]3[C@H](CCC[C@H]3C(C)(O)C(F)(F)F)[C@@H]2C)c1Cl` (single isomer, unassigned) [Example 7-A], the inhibition at 15 min, 20 μM in series [1] lay in the range of 20 to 40%. Further, in series [2], the “% GABAA inhibition” value is recorded as 7.4%. Besides, in series [3], the EC50 was 251 nM.
Take `C[C@H]1[C@H]2CCCC([C@@H](O)C(F)(F)F)[C@@H]2CCN1C(=O)Cc1c(Cl)ccc2c1c(Cl)nn2C` (single isomer, unassigned) [Example 8-A]: the inhibition at 15 min, 20 μM in series [1] fell in the range of 20 to 40%. For the same molecule, in series [2], the “% GABAA inhibition” value was determined as 2.0%. In addition, in series [3], the EC50 is 79.4 nM.
Take `C[C@H]1[C@H]2CCCC([C@@H](O)C(F)(F)F)[C@@H]2CCN1C(=O)Cc1c(Cl)ccc2c1c(Cl)nn2C` (single isomer, unassigned) [Example 8-B]: the “% CYP3A4 inhibition” value in series [1] is “+++ (A percentage of inhibition greater than about 40% and lower than or equal to about 60% is indicated by +++.)”. The “% GABAA inhibition” value in series [2] is reported as −1.2%. The EC50 in series [3] is 126 nM.
On to `CC(O)c1ncc(Cl)c(CC(=O)N2CC[C@H]3[C@H]([C@H](O)C(F)(F)F)CCC[C@@H]3[C@@H]2C)c1Cl` (single isomer, unassigned) [Example 9-A], for which, in series [1], the inhibition at 15 min, 20 μM was 20 to 40%. The “% GABAA inhibition” value in series [2] was −14.1%. In series [3], the EC50 is 39.8 nM.
With `CC(O)c1ncc(Cl)c(CC(=O)N2CC[C@H]3[C@H]([C@H](O)C(F)(F)F)CCC[C@@H]3[C@@H]2C)c1Cl` (single isomer, unassigned) [Example 9-B], the “% CYP3A4 inhibition” value in series [1] was “++++ (A percentage of inhibition greater than about 20% and lower than or equal to about 40% is indicated by ++++.)”. The “% GABAA inhibition” value in series [2] was −8.4%. In addition, in series [3], the EC50 was 25.1 nM.
In turn, `C[C@H]1[C@H]2CCC[C@@H]([C@H](O)C(F)(F)F)[C@@H]2CCN1C(=O)Cc1c(Cl)cnc(C(O)C(F)F)c1Cl` (single isomer, unassigned) [Example 15-A] came in with an inhibition at 15 min, 20 μM in series [1] not above 20%. Moreover, in series [3], the EC50 was 39.8 nM.
In turn, `COc1ccc(C#N)c(CC(=O)N2CC[C@H]3[C@H]([C@H](O)C(F)(F)F)CCC[C@@H]3[C@@H]2C)c1Cl` [Example 1-A, 2-[2-[(1S,4aR,5R,8aS)-1-methyl-5-[(1S)-2,2,2-trifluoro-1-hydroxy-ethyl]-3,4,4a,5,6,7,8,8a-octahydro-1H-isoquinolin-2-yl]-2-oxo-ethyl]-3-chloro-4-methoxybenzonitrile] displayed an inhibition at 15 min, 20 μM in series [1] of 60 to 70%. For the same molecule, the inhibition at 10 µM in series [2] came out at 11.2%. In addition, the EC50 in series [3] was 31.6 nM.
In the case of `COc1ccc(C#N)c(CC(=O)N2CC[C@H]3[C@H]([C@@H](O)C(F)(F)F)CCC[C@@H]3[C@@H]2C)c1Cl` [Example 1-B, 2-[2-[(1S,4aR,5R,8aS)-1-methyl-5-[(1R)-2,2,2-trifluoro-1-hydroxy-ethyl]-3,4,4a,5,6,7,8,8a-octahydro-1H-isoquinolin-2-yl]-2-oxo-ethyl]-3-chloro-4-methoxybenzonitrile], the inhibition at 15 min, 20 μM in series [1] was 40 to 60%. The same molecule yielded an inhibition at 10 µM in series [2] of 4.9%. Further, the EC50 in series [3] was 398 nM.
`COc1ccc(Cl)c(CC(=O)N2CC[C@H]3[C@H]([C@H](O)C(F)(F)F)CCC[C@@H]3[C@@H]2C)c1C#N` [Example 2, 2-[2-[(1S,4aR,5R,8aS)-1-methyl-5-[(1S)-2,2,2-trifluoro-1-hydroxyethyl]-3,4,4a,5,6,7,8,8a-octahydro-1H-isoquinolin-2-yl]-2-oxoethyl]-3-chloro-6-methoxybenzonitrile] returned an inhibition at 15 min, 20 μM in series [1] of 20 to 40%. In series [2], the inhibition at 10 µM stood at 0%. In series [3], the EC50 was 39.8 nM.
The corresponding values for `COc1ncc(Cl)c(CC(=O)N2CC[C@H]3[C@H]([C@H](O)C(F)(F)F)CCC[C@@H]3[C@@H]2C)c1Cl` [Example 3, 1-[(1S,4aR,5R,8aS)-1-methyl-5-[(1S)-2,2,2-trifluoro-1-hydroxy-ethyl]-3,4,4a,5,6,7,8,8a-octahydro-1H-isoquinolin-2-yl]-2-(3,5-dichloro-2-methoxypyridin-4-yl)ethanone] are 60 to 70%, 13.8% and 25.1 nM.
The molecule `C[C@H]1[C@H]2CCC[C@@H]([C@H](O)C(F)(F)F)[C@@H]2CCN1C(=O)Nc1c(Cl)cccc1Cl` [Example 10, (1S,4aR,5R,8aS)—N-(2,6-dichlorophenyl)-1-methyl-5-[(1S)-2,2,2-trifluoro-1-hydroxy-ethyl]-3,4,4a,5,6,7,8,8a-octahydro-1H-isoquinoline-2-carboxamide] yielded an inhibition at 15 min, 20 μM in series [1] of 20 to 40%. In series [2], the inhibition at 10 µM came to 8.5%. Besides, in series [3], the EC50 is 12.6 nM.
As for `C[C@H]1[C@H]2CCC[C@@H]([C@H](O)C(F)(F)F)[C@@H]2CCN1C(=O)Cc1c(Cl)ccc2nnc(Cl)n12` [Example 11, 1-[(1 S,4aR,5R,8aS)-1-methyl-5-[(1 S)-2,2,2-trifluoro-1-hydroxy-ethyl]-3,4,4a,5,6,7,8,8a-octahydro-1H-isoquinolin-2-yl]-2-(3,6-dichloro-[1,2,4]triazolo[4,3-a]pyridin-5-yl)ethanone], in series [1], the inhibition at 15 min, 20 μM fell in the range of 70 to 80%. This molecule also registered an inhibition at 10 µM in series [2] of 6%. The EC50 in series [3] was 63.1 nM.
